The source of these data is EPA's ToxValDB 9.5.

In data set [1] the test system is Rattus norvegicus. The settings on record: for LD50 / LC50: acute; for LC50: inhalation.
The subject of another data set is Oryctolagus sp. The note with it: acute, dermal.
Data set [2] has as its system Canidae. The note with it: oral; for NOAEL: diet, Beagle.
The test system of a further data set is Mus musculus. The settings on record: oral; for NOAEL: duration: 10 days, gavage.
Data set [3] relates to Canidae. The note with it: duration: 2 years, oral, M/F, Beagle, Liver effects and inhibition of brain acetylcholinesterase activity.
The test system of data set [4] is Rattus norvegicus. The note with it: short-term, duration: 28 days, oral, gavage, M/F.
[5] abbreviates: subchronic, duration: 90 days, oral, diet.
Where [6] appears, read: chronic, duration: 118 weeks, oral, diet, F, Sprague-Dawley.
Where [7] appears, read: chronic, duration: 118 weeks, oral, diet, M, Sprague-Dawley.
Where [8] appears, read: developmental, duration: 20 days, oral, drinking water, Osborne-Mendel.
Setting [9] is: reproduction developmental, duration: 27 weeks, oral, diet, Charles River Ceesarean albino, generation: F0.
Where [10] appears, read: reproduction developmental, duration: 118 weeks, oral, diet, F, Sprague-Dawley.
Where [11] appears, read: reproduction developmental, duration: 118 weeks, oral, diet, M, Sprague-Dawley.
Where [12] appears, read: reproduction developmental, oral, diet, Crl:CD(SD).

Bounds are passed on as bounds.

For the compound `CC(C)CCCCCCOC(=O)CCCCC(=O)OCCCCCCC(C)C` [Diisononyl adipate], the LD50 (commonly the dose at which mortality reaches 50%) is > 10000 mg/kg in the data set with Rattus norvegicus [1] (oral, gavage) and > 3160 mg/kg with Oryctolagus sp.. Moreover, the NOAEL (usually the highest tested level that showed no adverse finding) in the data set on Rattus norvegicus [1] (subchronic, duration: 13 weeks, oral, diet) amounted to 500 mg/kg-day; in the data set with Canidae [2] (subchronic, duration: 13 weeks), 274 mg/kg-day.

Turning to `CC(C)(C)c1cc(CCC(=O)OCC(COC(=O)CCc2cc(C(C)(C)C)c(O)c(C(C)(C)C)c2)(COC(=O)CCc2cc(C(C)(C)C)c(O)c(C(C)(C)C)c2)COC(=O)CCc2cc(C(C)(C)C)c(O)c(C(C)(C)C)c2)cc(C(C)(C)C)c1O` [Irganox 1010], the LC50 with Rattus norvegicus [1] was > 1.96 µg/mL. The LD50 is > 5000 mg/kg in the data set on Rattus norvegicus [1] (oral) and > 3160 mg/kg in the data set with Oryctolagus sp.. The NOAEL in the data set on Rattus norvegicus [1] (developmental, duration: 10 days, oral, gavage, Sprague-Dawley) was found to be 1000 mg/kg-day; in the data set with Rattus norvegicus [1] (reproduction developmental, duration: 10 months, oral, diet, generation: F0) it was 10000 ppm; in the data set with Rattus norvegicus [1] (reproduction developmental, duration: 10 months, oral, diet, generation: F1), 10000 ppm; with Rattus norvegicus [1] (reproduction developmental, duration: 10 months, oral, diet, generation: F2), 10000 ppm; in the data set with Rattus norvegicus [1] (subchronic, duration: 3 months, oral, diet, Sprague-Dawley), 2500 mg/kg-day; in the data set with Mus musculus (developmental) it was 1000 mg/kg-day. Besides, the NOAEL in the data set on Mus musculus (developmental, NMRI) was 1000 mg/kg-day; in the data set on Mus musculus (reproduction developmental, F) it was 1000 mg/kg-day; in the data set on Canidae [2] (subchronic, duration: 3 months) it was 322 mg/kg-day.

In the case of `Cc1c(Cc2cc(C(C)(C)C)c(O)c(C(C)(C)C)c2)c(C)c(Cc2cc(C(C)(C)C)c(O)c(C(C)(C)C)c2)c(C)c1Cc1cc(C(C)(C)C)c(O)c(C(C)(C)C)c1` [Ionox 330], the LD50 was > 2000 mg/kg in the data set on Rattus norvegicus [1] (dermal, semiocclusive); > 1000 mg/kg in the data set with Rattus norvegicus [1] (injection, intraperitoneal, Sprague-Dawley); > 5000 mg/kg in the data set on Rattus norvegicus [1] (oral, Carworth 'E' and 'N' strains). Besides, the NOAEL with Rattus norvegicus [1] (setting [5]) was > 960 mg/kg-day; in the data set on Rattus norvegicus [1] (subchronic, duration: 90 days, oral, diet, albino), 480 mg/kg-day; in the data set with Canidae [2] (subchronic, duration: 90 days) it was 185 mg/kg-day.

On to `CC(C)(C)c1cc(CCC(=O)OCCSCCOC(=O)CCc2cc(C(C)(C)C)c(O)c(C(C)(C)C)c2)cc(C(C)(C)C)c1O`, for which, in the data set on Rattus norvegicus [1] (whole body), the LC50 was > 6300 mg/m3. In addition, the LD50 with Rattus norvegicus [1] (oral, gavage) was > 5000 mg/kg; with Oryctolagus sp. (occlusive, New Zealand) it was > 3000 mg/kg. For the same compound, the no observed adverse effect level (NOAEL) came to 4.5 mg/kg-day in the data set on Rattus norvegicus [1] (chronic, duration: 93 days, oral, diet, F); 4.4 mg/kg-day in the data set with Rattus norvegicus [1] (chronic, duration: 93 days, oral, diet, M); 960 mg/kg-day in the data set on Rattus norvegicus [1] (setting [5]); 74 mg/kg-day in the data set with Canidae [2] (subchronic, duration: 90 days).

For `CCOP(=S)(OCC)ON=C(C#N)c1ccccc1` [Phoxim], the NOEL is 0.38 mg/kg-day in the data set with Canidae [3] (chronic, diet); 0.38 mg/kg-day with Canidae [3] (feed); < 7.5 mg/kg-day in the data set on Rattus norvegicus [4] (Slc: Wistar, Clinical Observation: Salivation + Body Weight Changes: decrease + Hematology: Hgb decrease, , Hct decrease, Plt increase, WBC increase + …); < 7.5 mg/kg-day with Rattus norvegicus [4] (Wistar, Clinical Observation: Salivation + Body Weight Changes: Weight gain decrease + Blood Chemistry: TP increase, ALB increase, A/G increasegamma…).

For the compound `COc1cc(S(=O)(=O)[O-])c(C)cc1N=Nc1c(O)ccc2cc(S(=O)(=O)[O-])ccc12.[Na+].[Na+]`, the LD50 in the data set with Rattus norvegicus [1] (oral, gavage, Sprague-Dawley) was > 10000 mg/kg; in the data set on Canidae [2] (acute, gavage, Dog Other), > 5000 mg/kg. For the same compound, the LOAEL – broadly, the lowest dose or exposure tested at which an adverse effect was seen – with Rattus norvegicus [1] (setting [6]) is 3600 mg/kg-day; in the data set with Rattus norvegicus [1] (setting [7]), > 2830 mg/kg-day; with Rattus norvegicus [1] (setting [8]), 546 mg/kg-day; in the data set on Rattus norvegicus [1] (setting [9]), 51900 ppm; with Rattus norvegicus [1] (setting [10]), 3600 mg/kg-day; in the data set on Rattus norvegicus [1] (setting [11]), > 2830 mg/kg-day. The LOAEL with Rattus norvegicus [1] (reproduction developmental, duration: 20 days, oral, drinking water, Osborne-Mendel, generation: F1) worked out at 546 mg/kg-day; in the data set with Rattus norvegicus [1] (setting [12]), 51900 ppm. Further, the NOAEL in the data set on Rattus norvegicus [1] (setting [6]) stood at 901 mg/kg-day; in the data set with Rattus norvegicus [1] (setting [7]) it was 2830 mg/kg-day; in the data set with Rattus norvegicus [1] (developmental, duration: 19 days, oral, gavage, Osborne-Mendel) it was 1000 mg/kg-day; with Rattus norvegicus [1] (setting [8]), 274 mg/kg-day; with Rattus norvegicus [1] (setting [9]) it was 13900 ppm; in the data set on Rattus norvegicus [1] (setting [10]), 901 mg/kg-day. Besides, the NOAEL in the data set on Rattus norvegicus [1] (setting [11]) worked out at 2830 mg/kg-day; with Rattus norvegicus [1] (reproduction developmental, duration: 19 days, oral, gavage, F, Osborne-Mendel) it was 1000 mg/kg-day; with Rattus norvegicus [1] (reproduction developmental, duration: 20 days, oral, drinking water, F, Osborne-Mendel), 939 mg/kg-day; with Rattus norvegicus [1] (setting [12]), 13900 ppm. Moreover, the “NOAEL (% diet)” value in the data set with Mus musculus (chronic, duration: 104 weeks, diet, CD1) was > 5.19.

`CCC(CC)C(C)COC(=O)c1ccccc1C(=O)OCC(C)C(CC)CC` (stereo not given) [Di-C7-9-branched and linear alkyl phthalates]: the values for the LD50 with Rattus norvegicus [1] (oral) and in the data set with Mus musculus (acute) were > 22000 mg/kg and > 26000 mg/kg, respectively. Further, the “NOAEL (% diet)” value was 1 in the data set with Rattus norvegicus [1] (reproduction developmental, oral, diet, Sprague-Dawley, generation: F0) and 1 with Rattus norvegicus [1] (reproduction developmental, oral, diet, Sprague-Dawley, generation: F1). Also, the NOAEL is 100 mg/kg-day with Rattus norvegicus [1] (short-term, duration: 4 weeks, oral, diet) and 100 mg/kg-day in the data set on Canidae [2] (chronic, duration: 14 weeks).
